According to PMC7927808 (Antimicrobial Agents and Chemotherapy, 2020):

Assays:
[1] = test system: S. aureus N315 pRB474-lugIEFGH; test: MIC determination, broth microdilution in BM; type: cell-based, Staphylococcus aureus; settings: for Effect of constitutive LugIEFGH expression on S. aureus susceptibility (in words): S. aureus pRB474-lugIEFGH compared with S. aureus pRB474 (Fig. 4); for MIC S. aureus pRB474-lugIEFGH: Table S2, mean MIC in BM-medium, 37°C, 24 h, 75% growth reduction, at least three independent experiments; for Ratio of MICs, S. aureus pRB474-lugIEFGH versus S. aureus pRB474: Table S2 / Fig. 4b, BM-medium
Description: (§1) Further strains used for MIC determination were S. aureus N315 with plasmids pRB474, pRB474-lugI, pRB474-lugEF, pRB474-lugIEF, pRB474-lugGH, pRB474-lugIGH, pRB474-lugEFGH, and pRB474-lugIEFGH.
(§2) If necessary, antibiotic was used at a concentration of 10 μg ml^−1 for chloramphenicol.
(§3) Strains used for MIC determinations were grown overnight in BM, with chloramphenicol for plasmid-containing strains, under continuous shaking at 37°C. Each strain was adjusted to OD600 of 0.0625 in BM. The antimicrobial molecule stock solutions were serially diluted in BM in 96-well microtiter plates. Each well with 100 μl medium, and chloramphenicol, if required, was inoculated with 2 μl of the OD600 of 0.0625 bacterial stock solution. The plates were incubated at 37°C for 24 h under continuous shaking (160 rpm). The OD600 of each well was measured with a microplate reader, and the concentration leading to a 75% growth reduction was calculated and defined as the MIC value.

S. aureus N315 pRB474 = test: MIC determination, broth microdilution in BM; type: cell-based, Staphylococcus aureus; settings: Table S2, mean MIC in BM-medium; empty vector strain; 37°C, 24 h, 75% growth reduction; at least three independent experiments
Description: as §1, §2, §3

Compound	Effect of constitutive LugIEFGH expression on S. aureus susceptibility (in words) [1]	MIC S. aureus pRB474-lugIEFGH [1] [µg/mL]	Ratio of MICs, S. aureus pRB474-lugIEFGH versus S. aureus pRB474 [1]	MIC S. aureus pRB474 (S. aureus N315 pRB474) [µg/mL]
2-Ala-lugdunin	no resistance against the 2-Ala congener was conferred	39.9	0.99	40.2
6-Trp-lugdunin	Similar, though even less pronounced	31.1	1.89	16.4
N#CC(C#N)=NNc1cccc(Cl)c1 [CCCP, carbonyl cyanide m-chlorophenylhydrazone]	did not affect the susceptibility	0.64	1.02	0.63
CO[C@@H]1C[C@@H](C[C@H]2CC[C@H](C)[C@H]([C@@H](C)C(=O)O)O2)O[C@]2(O[C@](C)([C@H]3CC[C@@](C)([C@@H]4O[C@@H]([C@H]5O[C@@](O)(CO)[C@H](C)C[C@@H]5C)C[C@@H]4C)O3)C[C@H]2C)[C@@H]1C [nigericin]	did not affect the susceptibility	0.25	1.00	0.25
daptomycin	did not affect the susceptibility	2.17	1	2.17
enantio-lugdunin	some degree of resistance	69.8	2.23	31.3
gramicidin S	did not affect the susceptibility	2.74	1.00	2.75
